# Measurements from PMC12391581 (Antiviral Research, 2025).
# Like-named read-outs stand apart in the source and are kept apart here.
# What was measured:
# [1] = tested on: B/Victoria-lineage viruses; type: cell-based
# [2] = tested on: neuraminidase (NA) of B/Victoria-lineage viruses; type: biochemical, influenza B/Victoria-lineage virus
# [3] = tested on: neuraminidase (NA) of B/Victoria-lineage viruses; conditions: cited from earlier work
# [4] = tested on: neuraminidase (NA) of A(H3N2) viruses; conditions: cited from earlier work
Structure (SMILES),EC50 fold-change compared to reference median EC50 values [1],NAI inhibition phenotype (NI/RI/HRI) [2],NAI inhibition phenotype (NI/RI/HRI) [3],NAI inhibition phenotype (NI/RI/HRI) [4]
"COC(=O)OCOc1c2n(ccc1=O)N([C@@H]1c3ccccc3SCc3c1ccc(F)c3F)[C@@H]1COCCN1C2=O [Baloxavir, baloxavir marboxil]",3.09–7.93 fold,,,
"CCOC(=O)C1=C[C@@H](OC(CC)CC)[C@H](NC(C)=O)[C@@H](N)C1 [Oseltamivir, oseltamivir]",,RI (key: normal inhibition (NI) is a <5-fold increase in the NAI IC50; RI is a 5- to 50-fold increase; HRI is a >50-fold increase),,
"CC(=O)N[C@H]1[C@H]([C@H](O)[C@H](O)CO)OC(C(=O)O)=C[C@@H]1N=C(N)N [Zanamivir, zanamivir]",,RI (key: normal inhibition (NI) is a <5-fold increase in the NAI IC50; RI is a 5- to 50-fold increase; HRI is a >50-fold increase),NI/RI,NI/RI
